Earlier results as cited in US20190298786A1, “EXTRACTS OF SAUDI ARABIAN HERBAL PLANTS, ANTI-CANCER METHOD USING SUCH EXTRACTS, AND CYTOLOGICAL PROFILING USING AUTOMATED HIGH-CONTENT IMAGING TECHNIQUE” (King Abdullah University of Science and Technology, priority 2016, published 2019).
In brackets after ≈: the same amount, converted by molar mass.

Experiments:
[1] = test system: KB cells
[2] = test system: CasKi cells
[3] = test system: MCF7 cells
[4] = test system: human cervical cancer (HOG-1) cell; conditions: HOG-1 cells, different concentrations

CC(C)(C)c1ccc(O)c(C(C)(C)C)c1 [2,4-ditert-butylphenol]
IC50 (cytotoxic effects) [1]: 0.81 µg/mL (≈ 3.93 µM)
IC50 (cytotoxic effects) [2]: 4.5 µg/mL (≈ 21.8 µM)
IC50 (cytotoxic effects) [3]: 5.75 µg/mL (≈ 27.9 µM)

CCCCCCCCCCCCCCCCCC(=O)O [stearic acid, Stearic acid]
effect on cell growth and DNA synthesis [4]: inhibited
